Laboratory results published in patent publication US5171882A, “Leukotriene antagonists” (Eli Lilly and Company, priority 1990, dated 1992).
Read-outs that look alike come from different tables or passages of the source.

Legend:
[1] = system: LTB4 induced cell aggregation (neutrophils); assay: LTB4 Induced Aggregation Assay (neutrophils); type: cell-based, guinea pig; details: Cavia porcellus, Neutrophil; for inhibition at 1 µM: drug concentration 10^-6 M; for inhibition at 0.1 µM: drug concentration 10^-7 M; for inhibition at 10 µM: drug concentration 10^-5 M
Description: Neutrophils were elicited by intraperitoneally injecting 20 ml of Dulbecco's calcium and magnesium deficient phosphate buffered saline (PBS) containing 2% oyster glycogen into each of two male Hartley guinea pigs. Eighteen hours later, cells accumulating in the peritoneal cavity were harvested by washing the peritoneum with approximately 100 ml of PBS containing 10 units/ml of heparin. The cells were centrifuged at 200 g for 8 min. and the supernatant fluid discarded. Erythrocytes present in the pellet were lyzed by vigorous agitation of the cells in 9 ml of ice-cold distilled water for approximately 30 seconds. Physiological osmolarity was restored by adding 1.5 ml of 0.6 M KCl. Twelve milliliters of PBS were added and the resuspended cells centrifuged at 200 g for 8 min. at 4°. The pellet was resuspended in 5 ml PBS. The cell concentration was determined and additional buffer added to make the concentration […]; cells per ml.
The aggregation assay was carried out by measuring the amount of LTB4 induced cell aggregation with a Payton single channel aggregometer, model 300B. The apparatus was calibrated by placing a cuvette containing the cell suspension in it and adjusting the zero knob so that the recorder pen rested at 1 mV. A cuvette containing 20% less cells was then inserted into the aggregometer and the output knob adjusted so that the recorder pen rested at 9 mV. With these settings an 8 mV change causes the recorder pen to move 200 mm. When conducting an assay, 0.5 ml of cell suspension (5×10^6 cells) was added to each cuvette. Five microliters of a solution of test compound were then added. Most compounds were initially dissolved in DMSO at 1×10^-2 M and then diluted appropriately with PBS so that the test compound concentration was 1×10^-5 to 1×10^-7 M and the test DMSO concentration was 0.1% or less. A few of the more water insoluble compounds were first dissolved in DMSO at 1 to 6×10^-3 M and then diluted appropriately with PBS. The test concentration of DMSO was never higher than 1%. After a 2 minute equilibration period of cells and test compound, 5 μl of a solution containing CaCl2 (100 mM) and MgCl2 (50 mM) were added. One minute later, 5 μ l of PBS containing LTB4 (3×10^-7 M) were added. The change occurring in the amount of light transmitted during the subsequent minute was measured. […] During a typical experiment, several measurements of the amount of aggregation induced by LTB4 were made and an average value determined. The effect of a test compound on this aggregation was determined by the following formula: [formula]

[2] = molecular target: T1, LTD4 receptors (Cavia porcellus, UniProt Q2NNR5); assay: Antagonism of LTD4 (guinea pig ileum and trachea, pA2); details: *Estimated; negative log of KB; antagonist 30 minute incubation
T1 construct: A section of terminal ileum was removed, the lumen cleaned, and the tissue divided into 2.5 cm segments; from tissue; host or cells: ileum and trachea of guinea pig (ileum: male Hartley)
T1 sequence (Q2NNR5 1-340): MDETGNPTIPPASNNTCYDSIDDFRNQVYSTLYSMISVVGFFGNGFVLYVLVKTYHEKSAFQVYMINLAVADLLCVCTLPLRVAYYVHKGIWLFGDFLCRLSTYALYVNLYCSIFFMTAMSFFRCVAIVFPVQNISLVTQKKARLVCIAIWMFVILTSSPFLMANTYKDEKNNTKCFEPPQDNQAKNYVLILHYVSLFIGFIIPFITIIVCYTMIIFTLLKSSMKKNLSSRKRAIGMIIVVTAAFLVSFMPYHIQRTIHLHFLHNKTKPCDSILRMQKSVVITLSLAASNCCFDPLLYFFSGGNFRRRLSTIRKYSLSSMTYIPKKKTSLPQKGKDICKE
Description: Male, Hartley guinea pigs weighing 200-450 grams were killed by decapitation. A section of terminal ileum was removed, the lumen cleaned, and the tissue divided into 2.5 cm segments. The ilea were mounted in 10 ml tissue baths containing Krebs-bicarbonate solution of the following composition in mmoles/liter: KCl, 4.6; CaCl2 ·2H2 O, 1.2; KH2 PO4, 1.2; MgSO4 ·7H2O, 1.2; NaCl, 118.2; NaHCO3, 24.8; and dextrose, 10.0. The bath fluid was maintained at 37° C. and aerated with 95 percent oxygen and 5 percent CO2 In addition, the buffer contained 1×10^-6 M atropine to reduce ileal spontaneous activity. Isometric measurements were made with a Grass FT03C. force-displacement transducer and recorded on a Grass polygraph as change in grams of force. A passive force of 0.5 g was applied to the tissues. After an appropriate equilibration period, single submaximal control responses to pure LTD4 were obtained. Following a five minute exposure of the ileum to an experimental drug, the control concentration of LTD4 was added to the tissue bath. The response of the ileum to LTD4 in the presence of the drug was compared to the response in the absence of the drug.
A more detailed analysis of LTD4 antagonism was then made. In these experiments, cumulative concentration-response curves were obtained to LTD4 in guinea pig ileum and trachea. This was followed by a 30 minute incubation with various concentrations of the experimental drug. The concentration response curve to LTD4 was then repeated in the presence of the antagonist. Only one concentration of antagonist was used on a single tissue. KB values were calculated by the method of Furchgott [Ann. N.Y. Acad. Sci., 139, 553 (1967)] using the following equation. [formula]
Dose ratio refers to the concentration of agonist required to elicit 50 percent of the maximal response ED50) in the presence of the antagonist divided by the ED50 in the absence of the antagonist.

[3] = molecular target: T2, specific receptor on the membrane of human neutrophils (leukotriene B4) (Homo sapiens, UniProt Q15722); assay: Inhibition of Binding of ^3 H-LTB4 to Peripheral Human Neutrophils; details: for inhibition at 10 µM / inhibition at 1 µM / inhibition at 0.1 µM: read-out: LTB4 Binding Inhibition; for inhibition at 0.1 µM: drug concentration 10^-7 M
T2 construct: Freshly-prepared buffy coat layers from two individuals were obtained from a local blood donor center; endogenous in cells; host or cells: intact human peripheral blood neutrophils from buffy coats of two donors
Description: Cells used in the assay were isolated by standard techniques of centrifugation on Ficoll-Hypaque, dextran 70 sedimentation and hypotonic lysis. The following procedure was used. Freshly-prepared buffy coat layers from two individuals were obtained from a local blood donor center. The cells were mixed and diluted to 484 ml with phosphate buffered saline containing heparin (10 units/ml) and heat-inactivated calf serum (5%). This was divided into 20 ml aliquots and the aliquots layered on top of Ficoll-Paque (12 ml). The material was then centrifuged at 500 g for 40 minutes at room temperature. The resulting upper layer of platelets and mononuclear cells was discarded. The lower layer containing erythrocytes and neutrophils was retained. Buffer was added (1 ml per 4 ml of lower layer) and the suspension mixed. For each milliliter of this mixture, 0.33 ml of 6% Macrodex was added. After stirring, the cells were allowed to sediment for 1 hour at 37° C. The resulting erythrocyte pellet was discarded and the neutrophil enriched supernatant fluid centrifuged at 500 g for 10 minutes at 4° C. Erythrocytes still present in this cell pellet were lysed by incubating the cells with 5-8 ml ice-cold distilled water for 30-45 seconds. Subsequently, the volume was made up to 50 ml by addition of ice-cold buffer and the cells resuspended. The suspension was then centrifuged at 300 g for 10 minutes at 4° C. The cells were finally resuspended at a cell density of 2×10^7 cells/ml in the assay buffer This buffer consisted of Hanks' balanced salt solution and 0.1% ovalbumin (pH 7.3).
The amount of bound ^3 H-LTB4 was then measured and compared with the amount bound in the absence of test compound. The assay was carried out in microcentrifuge tubes by adding first 10 μl test compound dissolved in DMSO, followed by adding 20 μl ^3 H-LTB4 diluted in assay buffer, and finally adding 500 μl of the cell suspension. At the end of the 10 minutes incubation, 300 μl of a mixture of dibutyl and dinonyl phthalate (7:2) were added and the tubes centrifuged for 2 minutes in a microcentrifuge. The radioactivity bound to the cell pellet was measured by scintillation spectroscopy. Appropriate corrections for nonspecific bonding of ^3 H-LTB4 were made.

[4] = drug concentration 10^-5 M, 0.1-0.2 nM ^3 H-LTB4, 10 minutes at 4° C
[5] = drug concentration 10^-6 M, 0.1-0.2 nM ^3 H-LTB4, 10 minutes at 4° C
[6] = 0.1-0.2 nM ^3 H-LTB4, 10 minutes at 4° C

T2 sequence (Q15722 whole entry): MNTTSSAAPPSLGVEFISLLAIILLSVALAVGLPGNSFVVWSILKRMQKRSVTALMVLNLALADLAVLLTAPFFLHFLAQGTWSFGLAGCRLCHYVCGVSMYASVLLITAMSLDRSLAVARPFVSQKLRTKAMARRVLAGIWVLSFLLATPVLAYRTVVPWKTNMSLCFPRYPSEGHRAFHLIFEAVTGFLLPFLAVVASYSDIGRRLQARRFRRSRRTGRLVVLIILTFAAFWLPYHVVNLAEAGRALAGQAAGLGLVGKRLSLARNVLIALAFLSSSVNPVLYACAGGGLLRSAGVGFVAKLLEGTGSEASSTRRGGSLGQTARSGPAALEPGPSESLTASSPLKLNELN

| Compound | inhibition at 1 µM [1] [%] | inhibition at 0.1 µM [1] [%] | Kb [2] [nM] | inhibition at 10 µM [3, 4] [%] | inhibition at 1 µM [3, 5] [%] | LTB4 Binding Inhibition [3, 5] [percent inhibition] | inhibition at 0.1 µM [3, 6] [%] | inhibition at 10 µM [3] [%] | inhibition at 10 µM [1] [%] |
| --- | --- | --- | --- | --- | --- | --- | --- | --- | --- |
| CCCCCCCCCCOc1ccc(C(=O)c2cccc(C(=O)O)c2)cc1Cc1nnn[nH]1 [Example 3, 3-[4-(Decyloxy)-3-(1-tetrazol-5-ylmethyl]benzoyl]benzoic acid] | 84 | 2 | 501 | 76 | 26 | – | – | – | – |
| CCCCCCCCCCOc1ccc(C(=O)c2ccccc2C(=O)O)cc1CC(=O)O [Example 20, 5-(2-Carboxybenzoyl)-2-(decyloxy)benzeneacetic acid] | 78 | 32 | 1000 | 71 | – | 35 | – | – | – |
| CCCCCCCCCCOc1ccc(C(=O)c2cccc(C(=O)O)c2)cc1CCC(=O)O [Example 22, 5-(3-Carboxybenzoyl)-2-(decyloxy)benzenepropanoic acid] | – | 83 | 1950 | 95 | 62 | – | 17 | – | – |
| CCCCCCCCCCOc1ccc(C(=O)c2cccc(C(=O)O)c2)cc1CCc1nnn[nH]1 [Example 28, 3-{4-(Decyloxy)-3-[2-(1H-tetrazol-5-yl)ethyl]benzoyl}benzoic acid] | – | – | 324 | 96 | 55 | – | – | – | – |
| CCCCCCCCCCOc1ccc(C(=O)c2cccc(-c3nnn[nH]3)c2)cc1CCC(=O)O [Example 29, 2-(Decyloxy)-5-[3-(1H-tetrazol-5-yl)benzoyl]benzenepropanoic acid] | 72 | 14 | 955 | 98 | 71 | – | 11 | – | – |
| CCCCCCCCCCOc1ccc(C(=O)c2ccccc2CC(=O)O)cc1CCC(=O)O [Example 33, 5-[2-(Carboxymethyl)benzoyl]-2-(decyloxy)benzenepropanoic acid] | 94 | 45 | 1150 | – | 79 | – | 17 | 100 | – |
| CCCCCCCCCCOc1ccc(C(O)c2cccc(C(=O)O)c2)cc1CC(=O)O (stereo not drawn) [Example 45, 5-[(3--Carboxyphenyl)hydroxymethyl]-2-(decyloxy)benzeneacetic acid] | 11 | – | 2000 | 78 | 19 | – | – | – | 77 |
| CCCCCCOc1ccc(C(O)c2cccc(C(=O)O)c2)cc1CC(=O)O (stereo not drawn) [Example 48, 5-[(3--Carboxyphenyl)hydroxymethyl]-2-(hexyloxy)benzeneacetic acid] | – | – | 7940 | 10 | -10 | – | – | – | – |
| CCCCCCCCCCOc1ccc(C(=NO)c2cccc(C(=O)O)c2)cc1CCC(=O)O [Example 52, 5-[(3-Carboxyphenyl)(hydroxyimino)methyl]-2-(decyloxy)benzenepropanoic acid] | 89 | 38 | 661 | – | 61 | – | 17 | 92 | 94 |
| CCCCCCCCCCOc1ccc(Oc2cccc(C(=O)O)c2)cc1CCC(=O)O [Example 56, 5-(3-Carboxyphenoxy)-2-(decyloxy)benzenepropanoic acid] | – | – | 479 | 88 | 41 | – | – | – | – |
